What all share (test): NCI-60 cell line screen, 48 h
The test system of assay [1] is SK-MEL-28.
Assay [2] relates to Malme-3M.
Assay [3] deals with HCC 2998.
Assay [4] deals with PC-3.
Assay [5] has as its system SF-295.
The subject of assay [6] is A498.
The subject of assay [7] is HOP-62.
The test system of assay [8] is CCRF-CEM.
For assay [9], the system named is SN12C.
For assay [10], the system named is K562.
The subject of assay [11] is SR.
For assay [12], the system named is ACHN.
The test system of assay [13] is T47D.
Assay [14] has as its system SK-MEL-5.
The subject of assay [15] is UO-31.
Assay [16] relates to M14.
Assay [17] deals with RPMI-8226.
For assay [18], the system named is DU-145.
Assay [19] deals with SK-MEL-2.
The test system of assay [20] is IGROV-1.

This note sets out measurements from ChEMBL document CHEMBL1201862, “PubChem BioAssay data set” (2004).

SMILES strings stand for the structures.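 Five concentrations, 48 hours, 96-well plates. Abbreviation: GI50, concentration required for 50% inhibition of growth.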 Activity calls are given as the source filed them. Rule as the data show it: active = GI50 up to about 1.1 µM and inactive = higher.

With `COC(=O)c1nc2n(n1)-c1ccccc1C(=O)N(Cc1ccccc1)C2`, the GI50 is > 100 µM (inactive) in assay [1]; > 100 µM (inactive) in assay [2]; 40.4 µM (inactive) in assay [3]; > 100 µM (inactive) in [4]; > 100 µM (inactive) in [5]; > 100 µM (inactive) in assay [6]. For the same compound, the GI50 in assay [7], in assay [8], in assay [9], in assay [10], in assay [11] and in [12] was > 100 µM (inactive) in each case. Further, the GI50 in [13], in [14], in [15], in [16], in [17] and in [18] was > 100 µM (inactive) each time. The GI50 in [19] and in assay [20] was > 100 µM (inactive) each time.

Take `CC1CCC2(OC1)OC1CC3C4CC=C5CC(OC6OC(CO)C(OC7OC(C)C(OC8OC(C)C(O)C(O)C8O)C(O)C7O)C(O)C6OC6OC(C)C(O)C(O)C6O)CCC5(C)C4CCC3(C)C1C2C` (stereo not given): the GI50 in assay [1] was 0.612 µM (active); in [2], 0.363 µM (active); in [3] it was 0.313 µM (active); in [4], 0.724 µM (active); in assay [5], 0.308 µM (active); in assay [6], 0.291 µM (active). In addition, the GI50 in assay [7] is 2.56 µM (inactive); in [8] it was 0.0643 µM (active); in assay [9] it was 0.267 µM (active); in assay [10], 0.142 µM (active); in assay [11], 0.0196 µM (active); in [12] it was 1.47 µM (inactive). Moreover, the GI50 was 1.24 µM (inactive) in assay [13]; 1.43 µM (inactive) in assay [14]; 0.216 µM (active) in assay [15]; 1.05 µM (active) in assay [16]; 0.382 µM (active) in assay [17]; 1.28 µM (inactive) in [18]. Besides, the figures for the GI50 in [19] and in assay [20] were 1.21 µM (inactive) and 1.3 µM (inactive), respectively.

In the case of `O=C(CC1(O)C(=O)Nc2c(Cl)cc(Cl)cc21)c1cccc([N+](=O)[O-])c1` (stereo not given), the GI50 in [1] is 32.9 µM (inactive); in [2] it was 19.4 µM (inactive); in [3], > 45.2 µM (inactive); in assay [4], 32.1 µM (inactive); in assay [5], 31 µM (inactive); in [6], 27.9 µM (inactive). Besides, the GI50 in assay [7] was 50.6 µM (inactive); in assay [8], 17.4 µM (inactive); in assay [9] it was 24.7 µM (inactive); in assay [10], 19.8 µM (inactive); in assay [11] it was 51.9 µM (inactive); in assay [12], 23 µM (inactive). The GI50 in assay [13] is 63.5 µM (inactive); in [14] it was 17.2 µM (inactive); in assay [15] it was 38.6 µM (inactive); in assay [16], 22.8 µM (inactive); in assay [17], 28.2 µM (inactive); in assay [18], > 100 µM (inactive). Also, the figures for the GI50 in assay [19] and in assay [20] were 34.3 µM (inactive) and 18.2 µM (inactive), respectively.

As to `c1ccc(C(OCCN2CC3CCC(C2)N3)c2ccccc2)cc1`, the GI50 was 29.9 µM (inactive) in assay [1]; 16 µM (inactive) in [2]; 17.8 µM (inactive) in assay [3]; > 100 µM (inactive) in [4]; 83 µM (inactive) in assay [5]; 74 µM (inactive) in assay [6]. For the same compound, the GI50 was > 100 µM (inactive) in [7]; > 100 µM (inactive) in [8]; > 100 µM (inactive) in [9]; 43.8 µM (inactive) in [10]; 31.6 µM (inactive) in [11]; > 100 µM (inactive) in assay [12]. For the same compound, the GI50 is 29.9 µM (inactive) in assay [13]; 18.5 µM (inactive) in assay [14]; 64 µM (inactive) in assay [15]; 17.1 µM (inactive) in [16]; 34.1 µM (inactive) in [17]; > 100 µM (inactive) in assay [18]. The GI50 is 76.7 µM (inactive) in assay [19] and 94.6 µM (inactive) in assay [20].

Consider `COC(=O)NC1C(C)OC(OC2C/C=C(/C)C3C=CC4C(OC5CC(OC6CC(O)C(OC7CC(O)C(OC)C(C)O7)C(C)O6)C(O)C(C)O5)C(C)CC(C)C4C3(C)C(=O)C3=C(O)C4(CC(C)C(CO)=CC4/C=C\2C)OC3=O)CC1(C)[N+](=O)[O-]` (stereo not given), for which the GI50 is 11.2 µM (inactive) in [1]; 7.93 µM (inactive) in assay [2]; 16.6 µM (inactive) in [3]; 15.9 µM (inactive) in assay [4]; 16.6 µM (inactive) in assay [5]; 15.6 µM (inactive) in assay [6]. Also, the GI50 in assay [7] is 15.4 µM (inactive); in assay [8], 2.79 µM (inactive); in assay [9], 12.9 µM (inactive); in assay [10], 4.41 µM (inactive); in [11], 14.8 µM (inactive); in assay [12], 12.6 µM (inactive). In addition, the GI50 in [13] was 11.5 µM (inactive); in assay [14] it was 15.6 µM (inactive); in [15], 17.1 µM (inactive); in assay [16], 9.29 µM (inactive); in assay [17], 3.13 µM (inactive); in [18] it was 11.6 µM (inactive). The values for the GI50 in [19] and in [20] were 11.4 µM (inactive) and 8.93 µM (inactive), respectively.

Regarding `N#Cc1c(O)nc2[nH]nc(/N=N\c3c(O)ccc4ccccc34)c2c1-c1ccc(Cl)cc1`, the GI50 in assay [1] is 0.311 µM (active); in assay [2], 0.143 µM (active); in [3] it was 0.359 µM (active); in assay [4], 0.303 µM (active); in [5], 0.24 µM (active); in [6], 0.117 µM (active). In addition, the GI50 in assay [7] is 0.164 µM (active); in [8] it was < 0.0371 µM (active); in assay [9], 0.391 µM (active); in assay [10], 1.63 µM (inactive); in [11], 0.255 µM (active); in assay [12], 0.296 µM (active). Besides, the GI50 was 0.173 µM (active) in assay [13]; 0.369 µM (active) in [14]; 0.175 µM (active) in assay [15]; 0.188 µM (active) in assay [16]; 1.56 µM (inactive) in assay [17]; 0.17 µM (active) in assay [18]. Besides, the GI50 is 0.202 µM (active) in [19] and 0.286 µM (active) in [20].

In the case of `CC(=NNC(=S)Nc1ccc(C)cc1)c1cccc(C(C)=NNC(=S)Nc2ccc(C)cc2)n1`, the GI50 in [1] was > 100 µM (inactive); in assay [2], 2.06 µM (inactive); in [3], 35.6 µM (inactive); in assay [4], 17.7 µM (inactive); in [5], 11 µM (inactive); in [6], 20.9 µM (inactive). The GI50 in assay [7] is 9.82 µM (inactive); in assay [8] it was 7.5 µM (inactive); in assay [9] it was 21.5 µM (inactive); in assay [10], 12.2 µM (inactive); in assay [11], 4.02 µM (inactive); in [12] it was 5.66 µM (inactive). For the same compound, the GI50 in assay [13] is 29.6 µM (inactive); in assay [14], 6.44 µM (inactive); in assay [15], 6.68 µM (inactive); in assay [16], 8.89 µM (inactive); in [17] it was 19.2 µM (inactive); in assay [18] it was > 100 µM (inactive). The values for the GI50 in [19] and in [20] were 68.7 µM (inactive) and 12.1 µM (inactive), respectively.

On to `CC1=CCC([C@@](C)(O)CCCC(C)(C)N=C=S)CC1` (stereo not given in full), for which the GI50 in [1] was 16.6 µM (inactive); in assay [2], 14.8 µM (inactive); in assay [3], 18.2 µM (inactive); in assay [4], 18.6 µM (inactive); in assay [5] it was 19.4 µM (inactive); in [6], 15.3 µM (inactive). Besides, the GI50 in [7] is 22.6 µM (inactive); in assay [8], 22.2 µM (inactive); in [9] it was 18.1 µM (inactive); in assay [10], 19.3 µM (inactive); in assay [11], 19.8 µM (inactive); in assay [12], 16.8 µM (inactive). The GI50 was 21 µM (inactive) in assay [13]; 15.4 µM (inactive) in assay [14]; 13.7 µM (inactive) in assay [15]; 17.1 µM (inactive) in assay [16]; 25.7 µM (inactive) in [17]; 16.4 µM (inactive) in [18]. For the same compound, the GI50 in [19] is 17.7 µM (inactive); in assay [20], 20.2 µM (inactive).

In the case of `NC(=O)SCCC(N)C(=O)O` (stereo not given), the GI50 in assay [1], in assay [2], in [3], in assay [4], in [5] and in assay [6] was > 100 µM (inactive) in each case. Besides, the GI50 in assay [7], in assay [8], in assay [9], in [10], in assay [11] and in assay [12] was > 100 µM (inactive) in each case. Further, the GI50 in [13], in assay [14], in assay [15], in assay [16], in [17] and in [18] was > 100 µM (inactive) throughout. Moreover, the GI50 in assay [19] and in assay [20] was > 100 µM (inactive) each time.

As to `O=C1C(Br)=Cc2c(Cl)sc(Cl)c21`, the GI50 in [1] was 11.6 µM (inactive); in assay [2], 8.67 µM (inactive); in assay [3], 2.37 µM (inactive); in assay [4] it was 2.55 µM (inactive); in assay [5], 24 µM (inactive); in [6] it was 23.9 µM (inactive). Further, the GI50 in assay [7] is 7.45 µM (inactive); in assay [8], 0.232 µM (active); in assay [9] it was 5.51 µM (inactive); in assay [10], 1.07 µM (active); in assay [11], 2.15 µM (inactive); in assay [12], 2.91 µM (inactive). Besides, the GI50 is 2.42 µM (inactive) in [13]; 19.5 µM (inactive) in assay [14]; 2.82 µM (inactive) in [15]; 7.05 µM (inactive) in assay [16]; 0.668 µM (active) in [17]; 5.42 µM (inactive) in assay [18]. For the same compound, the GI50 in assay [19] is 13.6 µM (inactive); in assay [20], 2.59 µM (inactive).
